Measurements from patent US9540325B2, “N1-cyclic amine-N5-substituted phenyl biguanide derivatives, methods of preparing the same and pharmaceutical composition comprising the same” (Immunomet Therapeutics, Inc., priority 2011, dated 2017).
Structures can show the parent of a compound that is named as a salt.

Key:
AMPKα = assay: Measurement of AMPK activation effect (AMPKα Thr172 phosphorylation immunoassay) in MCF7 cells; format: cell-based, human; conditions: 24 hours; for AMPK activation effect at 10 μM (%) / AMPK activation effect at 50 μM (%): relative to untreated cells; for AMPK activation effect AC150: concentration at which AMPK activation reached 150%
Procedure: MCF7 cells derived from human breast cancer cells (commercially available from the Korean Cell Line Bank) were used, and the AMPK activation effect of the biguanide derivative was confirmed using an AMPKα immunoassay kit (Invitrogen, Catalog No. KHO0651).
MCF7 cells were cultured in a DMEM medium supplemented with 10% fetal bovine serum. Thereafter, the cultured MCF7 cells were put into a 6-well plate with approximately 5×10^5 cells per well and cultured in an incubator supplied with 5% CO2. Culture media were treated with the derivatives synthesized in the examples at contents of 5, 10 and 50 μM, and then cultured for 24 hours. Metformin hydrochloride was used as the control, and the culture media were treated with 0.05, 0.5, 1, 2, 5 and 10 mM metformin hydrochloride, and then tested in the same manner as described in the derivatives synthesized in the examples. Subsequently, the cells were lysed according to a method presented in the operation manual of the AMPKα immunoassay kit, and 20 μg of a cell lysate was then yielded through protein assay. Thereafter, the AMPK activation effect was obtained by determining the degree of phosphorylation of 172nd threonine residue (Thr172) of the AMPKα from the cell lysate according to the method presented in the operation manual of the AMPKα immunoassay kit. […] A curve graph showing AMPK activation according to the concentration of the treated compounds was plotted based on the obtained AMPKα activation results, the concentration (activation concentration 150, AC150) value of the compound whose AMPK activation reached 150% was calculated using a GraphPad Prism 5.0 program, and the degrees of AMPK activation were obtained when concentrations of the treated biguanide derivatives were 10 μM and 50 μM and the metformin hydrochloride was 50 μM

HCT116 cells = assay: Measurement of effect of inhibiting cancer cell proliferation (MTT); format: cell-based, human; conditions: for inhibition at 100 µM: HCT-116, 100 μM, read-out: Cell Growth Inhibition (%) at 100 μM
Description: HCT116 cells derived from human colorectal cancer (commercially available from the Korean Cell Line Bank) were used, and the effect of inhibiting cancer cell proliferation of the biguanide derivative was confirmed by measuring the concentration value (cell growth inhibition concentration, GIC50) at which cell growth was inhibited by 50% using a 3-(4,5-dimethylthiazol-2-yl)-2,5-diphenyltetrazolium bromide (MTT) reagent.
First, HCT116 cells were put on a 96-well plate and cultured in a DMEM medium containing 10% fetal bovine serum for 16 hours so that the cellcount in each well was approximately 5,000. Subsequently, to obtain the GIC50 value of each compound, culture media were treated with 100 μM, 25 μM, 6.25 μM, 1.56 μM or 0.39 μM of the compound, and then cultured for 48 hours. Metformin hydrochloride was used as the control, and the culture media were treated with 25, 12.5, 2.5, 0.5, 0.1 mM metformin hydrochloride, and then tested in the same manner as described in the derivatives synthesized in the examples. In order to determine whether the cells survived after treatment with the compounds, MTT was added to the culture media which were then cultured for another 3 hours. Formed formazane crystals were dissolved using dimethyl sulfoxide (DMSO), and the absorbance of the resulting solution was measured at 560 nm. After the 48-hour culture, […] was indicated as cell viability (%) according to each treated concentration. A cell viability curve graph was plotted and the concentration (GIC50) value of the compound at which the growth was inhibited by 50% was calculated to confirm the inhibition effect of cancer cell proliferation. Also, the cell growth viability (%) when the concentration of the treated biguanide derivative and the metformin hydrochloride as the control were 100 μM was shown.

Row | Structure (SMILES) | melting point [°C] | GI50 (HCT116 cells; Homo sapiens, HCT-116, 48 h) [µM] | AMPK activation effect at 10 μM (%) (AMPKα) | AMPK activation effect AC150 (AMPKα) [µM] | inhibition at 100 µM (HCT116 cells; Homo sapiens, 48 hours) [%] | AMPK activation effect at 50 μM (%) (AMPKα) | Cell Growth Inhibition (%) at 100 μM (HCT116 cells; 100 μM, 48 hours) [%] | GI50 (HCT116 cells; 48 hours) [µM]
1 | N=C(NC(=N)N1CCCCC1)Nc1ccc(C(F)(F)F)cc1 (as salt: acetate) [Example 71, N1-piperidine-N5-(4-trifluoromethyl)phenyl biguanide acetate] | 198 to 200 | – | – | – | – | – | – | –
2 | N=C(NC(=N)N1CCCCC1)Nc1ccc(OC(F)(F)F)cc1 (as salt: acetate) [Example 73, N1-piperidine-N5-(4-trifluoromethoxy)phenyl biguanide acetate] | 200 to 202 | – | – | – | – | – | – | –
3 | N=C(NC(=N)N1CCCC1)Nc1ccc(C(F)(F)F)c(F)c1 (as salt: acetate) [Example 74, N1-pyrrolidine-N5-(3-fluoro-4-trifluoromethyl)phenyl biguanide acetate] | 204 to 205 | – | – | – | – | – | – | –
4 | N=C(NC(=N)N1CCCCC1)Nc1ccc(C(F)(F)F)c(F)c1 (as salt: acetate) [Example 75, N1-piperidine-N5-(3-fluoro-4-trifluoromethyl)phenyl biguanide acetate] | 206 to 208 | – | – | – | – | – | – | –
5 | N=C(NC(=N)N1CCCC1)Nc1ccc(OC(F)(F)F)c(F)c1 (as salt: acetate) [Example 76, N1-pyrrolidine-N5-(3-fluoro-4-trifluoromethoxy)phenyl biguanide acetate] | 203 to 205 | – | – | – | – | – | – | –
6 | N=C(NC(=N)N1CCCCC1)Nc1ccc(OC(F)(F)F)c(F)c1 (as salt: acetate) [Example 77, N1-piperidine-N5-(3-fluoro-4-trifluoromethoxy)phenyl biguanide acetate] | 202 to 204 | – | – | – | – | – | – | –
7 | Cl.N=C(NC(=N)N1CCCC1)Nc1ccc(Cl)cc1 [Example 17, N1-pyrrolidine-N5-(4-chloro)phenyl biguanide hydrochloride] | 260 to 261 | 48.2 | 167 | 8.4 | 97.4 | 512 | – | –
8 | Cl.N=C(NC(=N)N1CCCCC1)Nc1cccc(OC(F)F)c1 [Example 30, N1-piperidine-N5-(3-difluoromethoxy)phenyl biguanide hydrochloride] | – | – | 187 | 6.4 | – | 636 | 97.9 | 33.7
9 | Cl.N=C(NC(=N)N1CCCCC1)Nc1ccc(S(=O)(=O)O)cc1 [Example 42, N1-piperidine-N5-(4-sulfonic acid)phenyl biguanide hydrochloride] | – | > 100 | 68 | >50 | 23.2 | 97 | – | –
10 | Cl.N=C(NC(=N)N1CCCCC1)Nc1ccc(S(N)(=O)=O)cc1 [Example 44, N1-piperidine-N5-(4-sulfamoyl)phenyl biguanide hydrochloride] | – | > 100 | 119 | >50 | 32.6 | 114 | – | –
11 | Cl.N=C(NC(=N)N1CCCC1)Nc1ccc(OC(F)(F)F)c(Cl)c1 [Example 56, N1-pyrrolidine-N5-(3-chloro-4-trifluoromethoxy)phenyl biguanide hydrochloride] | – | 4.6 | 367 | 2.0 | 101 | – | – | –

Further lines, with some results ahead:

Row | melting point [°C] | GI50 (HCT116 cells; Homo sapiens, HCT-116, 48 h) [µM] | Structure (SMILES) | AMPK activation effect at 10 μM (%) (AMPKα) | AMPK activation effect AC150 (AMPKα) [µM] | inhibition at 100 µM (HCT116 cells; Homo sapiens, 48 hours) [%] | AMPK activation effect at 50 μM (%) (AMPKα) | Cell Growth Inhibition (%) at 100 μM (HCT116 cells; 100 μM, 48 hours) [%] | GI50 (HCT116 cells; 48 hours) [µM]
12 | 263 to 264 | 7 | Cl.N=C(NC(=N)N1CCCCC1)Nc1cccc(Br)c1 [Example 7, N1-piperidine-N5-(3-bromo)phenyl biguanide hydrochloride] | 526 | 0.9 | 97.2 | – | – | –
13 | 204 to 206 | 56.8 | Cl.N=C(NC(=N)N1CCCCC1)Nc1ccccc1 [Example 8, N1-piperidine-N5-phenyl biguanide hydrochloride] | – | 10.1 | 77.6 | 347 | – | –
14 | 239 to 240 | 13.4 | Cc1cccc(NC(=N)NC(=N)N2CCCCC2)c1.Cl [Example 9, N1-piperidine-N5-(3-methyl)phenyl biguanide hydrochloride] | 149 | 12.4 | 79.1 | 255 | – | –
15 | 225 to 227 | 27.3 | CCc1cccc(NC(=N)NC(=N)N2CCCCC2)c1.Cl [Example 10, N1-piperidine-N5-(3-ethyl)phenyl biguanide hydrochloride] | 178 | 7.3 | 97.4 | 598 | – | –
16 | 210 to 212 | > 100 | Cl.N=C(NC(=N)N1CCCCC1)Nc1cccc(O)c1 [Example 11, N1-piperidine-N5-(3-hydroxy)phenyl biguanide hydrochloride] | 127 | >50 | 29.7 | 127 | – | –
17 | 225 to 227 | > 100 | Cl.N=C(NC(=N)N1CCCCC1)Nc1cccc(CO)c1 [Example 12, N1-piperidine-N5-(3-hydroxymethyl)phenyl biguanide hydrochloride] | 107 | >50 | 17.6 | 149 | – | –
18 | 230 to 232 | > 100 | COc1cccc(NC(=N)NC(=N)N2CCCCC2)c1.Cl [Example 13, N1-piperidine-N5-(3-methoxy)phenyl biguanide hydrochloride] | 97 | 16.0 | 45.4 | 300 | – | –
19 | 269 to 270 | > 100 | Cl.N=C(NC(=N)N1CCCCC1)Nc1ccc(F)cc1 [Example 14, N1-piperidine-N5-(4-fluoro)phenyl biguanide hydrochloride] | 204 | 4.0 | 49.7 | 429 | – | –
20 | 155 to 157 | > 100 | Cl.N=C(NC(=N)N1CCCCC1)Nc1ccccc1F [Example 15, N1-piperidine-N5-(2-fluoro)phenyl biguanide hydrochloride] | – | >50 | 39.5 | 100 | – | –
21 | 201 to 202 | 72.4 | Cl.N=C(NC(=N)N1CCCCC1)Nc1cccc(F)c1 [Example 16, N1-piperidine-N5-(3-fluoro)phenyl biguanide hydrochloride] | – | 9.9 | 67.2 | 378 | – | –
22 | 275 to 276 | 17 | Cl.N=C(NC(=N)N1CCCCC1)Nc1ccc(Cl)cc1 [Example 18, N1-piperidine-N5-(4-chloro)phenyl biguanide hydrochloride] | 281 | 3.4 | 97.7 | – | – | –
